These results are taken from US20230125964A1, “Methods for high throughput cryopreservation of cell clusters” (Regents of the University of Minnesota, priority 2021, published 2023).

Each structure is given as a SMILES string.

The conditions of data set [1]: cited from earlier work.
Data set [2] deals with SC-beta islets. Conditions: individual components and mixtures at same total concentration (44%), FIG. 3C.
Protocol: The full-strength CPA used was 22 wt % EG+22 wt % DMSO prepared in RPMI medium. To load the CPA, islets were first incubated in 20% CPA (i.e., 4.4 wt % EG+4.4 wt % DMSO) for 10 min at 21° C., followed by 50% CPA for 10 min at 4° C. and in 100% CPA for 10 min at 4° C. The islets suspension was then transferred to the cryomesh placed on a wicking material (i.e., paper towel). The CPA cocktail was wicked away through the nylon mesh and islets remained on the cryomesh. Clumping of islets was avoided. The cryomesh was quickly plunged into liquid nitrogen and stored in a liquid nitrogen tank. […]
Quantitative viability was measured on dissociated islet cells. […] After 15 seconds of incubation, 10 μL of the suspension was pipetted onto the Countess Cell Counting Chamber Slides (Thermo Fischer Scientific; Cat #C10228), and viability was quantified using a Countess II FL cell counter (Invitrogen by Thermo Fisher Scientific; Cat #AMQAF1000).
To optimize the CPA formulation, three overall CPA concentrations (33%, 44%, and 54%) were tested consisting of PG, EG, DMSO, or mixtures thereof. Qualitative and quantitative live/dead staining was used to measure SC-beta islet viability for each CPA after loading and unloading (FIG. 2F) and after VR. Qualitative measurements were determined by confocal imaging of intact islets after staining with acridine orange (AO) and propidium iodide (PI). […]

Take `C[S+](C)[O-]` [DMSO, dimethyl sulfoxide]: the “Transport: share achieving normoglycemia” value in data set [1] (canine islets to mice) is recorded as 62%. For the same molecule, the “Transport: time to normoglycemia” value in data set [1] (literature studies) was “in 4 days”.
On to `OCCO` [EG, ethylene glycol], for which, in data set [2], the “islet toxicity after CPA loading and unloading” value is on record as “least islet toxicity of the three individual components”.
